Test [1] has as its system Rhipicephalus sanguineus (nymphs). The experiment in a line: Arena test in vitro against Rhipicephalus sanguineus (nymphs). To be noted: ca. 40 to 50, video evaluation. The method, then:
This method is carried out in titre plates having 6 wells with a cross-section of 5 cm each, using a computer-supported video system. Each well of the titre plate is lined with a circular filter paper or another suitable carrier material. The substance of formula I to be tested is dissolved in methanol, acetonitrile or another suitable solvent, with ultrasound treatment and heating being employed for poorly-soluble substances. In an amount of 1 to 100 μg/cm^2, the dissolved test substance is placed in the centre of the filter paper on a quadrant or circular area of ca. 2.4 cm^2 radius. 4 of the 6 wells are filled with different test substances or with the same test substance in different dilutions (e.g. 1, 3.2, 5, 10 and 20 μg/cm^2). The 5th well is treated with DEET (N,N-diethyl-m-toluamide) as standard substance. The 6th well is filled with the pure solvent and serves as a control. 60 to 100 larvae or 25 to 50 nymphs or 10 to 25 adults of the parasite to be tested, e.g. ticks, are added to each filter paper, and the system is covered with a pane of glass and positioned under a video camera. At intervals of 5 seconds, the video camera takes individual pictures of all 6 wells. For a qualitative evaluation, these images are observed in a time-lapse as a continuous film, optically following the movements of the parasites on the filter paper and comparing them with the movements in the control well no. 6 or with the standard in the 5th well. A qualitative observation is thus made as to whether the test parasites move evenly over the whole surface of the filter paper and ignore the test substance, or whether and over what period they avoid the treated zone, and what influence the dilution of the test substance has on the behaviour of the test parasites. In this way, neutral and deterring substances are determined. At the same time, the duration of activity of the test substance is determined and compared with that of the standard. By plotting all the images for each individual well over one another, different areas of density are obtained. This represents the frequency at which the parasites visit certain places. This frequency is evaluated statistically and thus quantitatively by the Willcoxon method in a comparison with the control and with the standard. […] Arena Test In Vitro Against Rhipicephalus sanguineus (nymphs) A test is carried out analogously to example B using ca. 40 to 50 nymphs. […] In particular, the compounds are notable for their almost complete deterring action, which lasts considerably longer than that of DEET. Particularly marked long-term activity is shown for example by compounds Nos. 1.001, 2.001, 3.001, 4.001, 5.001, 5.184, 5.185, and 5.186 even up to a dilution of 10 μg/cm^2.

The subject of test [2] is Amblyomma hebraeum or variegatum (nymphs). Kind of test: Arena test in vitro against Amblyomma hebraeum or variegatum (nymphs). Particulars: ca. 25 to 50 per well, video evaluation. The method, then:
This method is carried out in titre plates having 6 wells with a cross-section of 5 cm each, using a computer-supported video system. Each well of the titre plate is lined with a circular filter paper or another suitable carrier material. The substance of formula I to be tested is dissolved in methanol, acetonitrile or another suitable solvent, with ultrasound treatment and heating being employed for poorly-soluble substances. In an amount of 1 to 100 μg/cm^2, the dissolved test substance is placed in the centre of the filter paper on a quadrant or circular area of ca. 2.4 cm^2 radius. 4 of the 6 wells are filled with different test substances or with the same test substance in different dilutions (e.g. 1, 3.2, 5, 10 and 20 μg/cm^2). The 5th well is treated with DEET (N,N-diethyl-m-toluamide) as standard substance. The 6th well is filled with the pure solvent and serves as a control. 60 to 100 larvae or 25 to 50 nymphs or 10 to 25 adults of the parasite to be tested, e.g. ticks, are added to each filter paper, and the system is covered with a pane of glass and positioned under a video camera. At intervals of 5 seconds, the video camera takes individual pictures of all 6 wells. For a qualitative evaluation, these images are observed in a time-lapse as a continuous film, optically following the movements of the parasites on the filter paper and comparing them with the movements in the control well no. 6 or with the standard in the 5th well. A qualitative observation is thus made as to whether the test parasites move evenly over the whole surface of the filter paper and ignore the test substance, or whether and over what period they avoid the treated zone, and what influence the dilution of the test substance has on the behaviour of the test parasites. In this way, neutral and deterring substances are determined. At the same time, the duration of activity of the test substance is determined and compared with that of the standard. By plotting all the images for each individual well over one another, different areas of density are obtained. This represents the frequency at which the parasites visit certain places. This frequency is evaluated statistically and thus quantitatively by the Willcoxon method in a comparison with the control and with the standard. […] Arena Test In Vitro Against Amblyomma hebraeum or variegatum (nymphs) The test is carried out as described above, with ca. 25 to 50 nymphs being added per well. 10 mg of dissolved test substance is applied to an area of 2.4 cm^2 radius. […] Particularly marked long-term activity is shown for example by using the compounds Nos. 1.001, 2.001, 3.001, 4.001, 5.001, 5.184, 5.185, and 5.186 even up to a dilution of 3.2 μg/cm^2.

Test [3] has as its system various parasites, e.g. ticks. The experiment in a line: Arena test: general method for testing vermin-deterring substances. To be noted: 1 to 100 μg/cm^2 on filter paper, video evaluation. The method, then:
Arena Test: General Method for Testing Vermin-Deterring Substances
This method is carried out in titre plates having 6 wells with a cross-section of 5 cm each, using a computer-supported video system. Each well of the titre plate is lined with a circular filter paper or another suitable carrier material. The substance of formula I to be tested is dissolved in methanol, acetonitrile or another suitable solvent, with ultrasound treatment and heating being employed for poorly-soluble substances. In an amount of 1 to 100 μg/cm^2, the dissolved test substance is placed in the centre of the filter paper on a quadrant or circular area of ca. 2.4 cm^2 radius. 4 of the 6 wells are filled with different test substances or with the same test substance in different dilutions (e.g. 1, 3.2, 5, 10 and 20 μg/cm^2). The 5th well is treated with DEET (N,N-diethyl-m-toluamide) as standard substance. The 6th well is filled with the pure solvent and serves as a control. 60 to 100 larvae or 25 to 50 nymphs or 10 to 25 adults of the parasite to be tested, e.g. ticks, are added to each filter paper, and the system is covered with a pane of glass and positioned under a video camera.
At intervals of 5 seconds, the video camera takes individual pictures of all 6 wells. For a qualitative evaluation, these images are observed in a time-lapse as a continuous film, optically following the movements of the parasites on the filter paper and comparing them with the movements in the control well no. 6 or with the standard in the 5th well. A qualitative observation is thus made as to whether the test parasites move evenly over the whole surface of the filter paper and ignore the test substance, or whether and over what period they avoid the treated zone, and what influence the dilution of the test substance has on the behaviour of the test parasites. In this way, neutral and deterring substances are determined. At the same time, the duration of activity of the test substance is determined and compared with that of the standard. By plotting all the images for each individual well over one another, different areas of density are obtained. This represents the frequency at which the parasites visit certain places. This frequency is evaluated statistically and thus quantitatively by the Willcoxon method in a comparison with the control and with the standard.

Test [4] deals with Boophilus microplus Biarra (larvae). Kind of test: Arena test in vitro against Boophilus microplus Biarra (larvae). To be noted: ca. 60 to 100 per well, video evaluation. The method, then:
This method is carried out in titre plates having 6 wells with a cross-section of 5 cm each, using a computer-supported video system. Each well of the titre plate is lined with a circular filter paper or another suitable carrier material. The substance of formula I to be tested is dissolved in methanol, acetonitrile or another suitable solvent, with ultrasound treatment and heating being employed for poorly-soluble substances. In an amount of 1 to 100 μg/cm^2, the dissolved test substance is placed in the centre of the filter paper on a quadrant or circular area of ca. 2.4 cm^2 radius. 4 of the 6 wells are filled with different test substances or with the same test substance in different dilutions (e.g. 1, 3.2, 5, 10 and 20 μg/cm^2). The 5th well is treated with DEET (N,N-diethyl-m-toluamide) as standard substance. The 6th well is filled with the pure solvent and serves as a control. 60 to 100 larvae or 25 to 50 nymphs or 10 to 25 adults of the parasite to be tested, e.g. ticks, are added to each filter paper, and the system is covered with a pane of glass and positioned under a video camera. At intervals of 5 seconds, the video camera takes individual pictures of all 6 wells. For a qualitative evaluation, these images are observed in a time-lapse as a continuous film, optically following the movements of the parasites on the filter paper and comparing them with the movements in the control well no. 6 or with the standard in the 5th well. A qualitative observation is thus made as to whether the test parasites move evenly over the whole surface of the filter paper and ignore the test substance, or whether and over what period they avoid the treated zone, and what influence the dilution of the test substance has on the behaviour of the test parasites. In this way, neutral and deterring substances are determined. At the same time, the duration of activity of the test substance is determined and compared with that of the standard. By plotting all the images for each individual well over one another, different areas of density are obtained. This represents the frequency at which the parasites visit certain places. This frequency is evaluated statistically and thus quantitatively by the Willcoxon method in a comparison with the control and with the standard. […] Arena Test In Vitro Against Boophilus microplus Biarra (larvae) The test is carried out as described above, with ca. 60 to 100 larvae being added per well. 10 mg of dissolved test substance is applied to an area of 2.4 cm^2 radius. […] Particularly marked long-term activity is shown for example by using the compounds Nos. 1.001, 2.001, 3.001, 4.001, 5.001, 5.184, 5.185, and 5.186 even up to a dilution of 10 μg/cm^2.

Consider `OCC1CCCN1Cc1ccccc1` (stereo not drawn) [Compound 2.001], for which the entries for the “dilution up to which particularly marked long-term activity is shown” value (from here on “dilution up”) in test [1], in test [2] and in test [4] were 10 μg/cm^2, 3.2 μg/cm^2 and 10 μg/cm^2, respectively. For the same molecule, the “vermin-deterring activity in the arena test” value (“vermin-deterring activity” below) in test [3] is recorded as “excellent activity”.
In the case of `OCCN(Cc1ccccc1)Cc1ccccc1` [Compound 5.001], the “dilution up” value amounted to 10 μg/cm^2 in test [1], 3.2 μg/cm^2 in test [2] and 10 μg/cm^2 in test [4]. Besides, in test [3], the “vermin-deterring activity” value is listed as “excellent activity”.
For the molecule `OC1CCN(Cc2ccccc2)C1` (stereo not drawn) [Compound 3.001, 1-Benzyl-pyrrolidin-3-ol], the “dilution up” value worked out at 10 μg/cm^2 in test [1], 3.2 μg/cm^2 in test [2] and 10 μg/cm^2 in test [4]. Also, the “vermin-deterring activity” value in test [3] is “excellent activity”.
In the case of `OCC1CCCCN1Cc1ccccc1` (stereo not drawn) [Compound 1.001], the “dilution up” value is listed as 10 μg/cm^2 in test [1], 3.2 μg/cm^2 in test [2] and 10 μg/cm^2 in test [4]. The “vermin-deterring activity” value in test [3] is reported as “excellent activity”.
`OC1CCCN(Cc2ccccc2)C1` (stereo not drawn) [Compound 4.001]: the “dilution up” value in test [1] amounted to 10 μg/cm^2; in test [2], 3.2 μg/cm^2; in test [4], 10 μg/cm^2. The “vermin-deterring activity” value in test [3] is listed as “excellent activity”.
On to `CC(CO)N(Cc1ccccc1)Cc1ccccc1` (stereo not drawn) [Compound 5.184], for which the entries for the “dilution up” value in test [1], in test [2] and in test [4] were 10 μg/cm^2, 3.2 μg/cm^2 and 10 μg/cm^2, respectively. Moreover, the “vermin-deterring activity” value in test [3] is “excellent activity”.

These data come from patent US8338490B2, “Composition for repelling and deterring vermin” (Novartis AG, priority 2006, dated 2012).
